Assay [1] concerns Cells stably expressing Amyloid Precursor Protein (APP). Nature of the assay: In vitro BACE cell-based assay (HEK cell assay): Aβ40 in conditioned medium by sandwich ELISA. The following applies: Aβ40 in conditioned medium after 24 h incubation. As for the experimental part: In Vitro BACE Cell-Based Assay:
The cell-based assay measures inhibition or reduction of Aβ40 in conditioned medium of test compound treated cells expressing amyloid precursor protein.
Cells stably expressing Amyloid Precursor Protein (APP) were plated at a density of 40K cells/well in 96 well plates (Costar). The cells were cultivated for 24 hours at 37° C. and 5% CO2 in DMEM supplemented with 10% FBS. The test compounds were then added to cells in 10-point dose response concentrations with the starting concentration being either 100 μM or 10 μM. The compounds were diluted from stock solutions in DMSO and the final DMSO concentration of the test compounds on cells was 0.1%. After 24 h of incubation with the test compounds the supernatant conditioned media was collected and the Aβ 40 levels were determined using a sandwich ELISA. The IC50 of the compound was calculated from the percent of control or percent inhibition of Aβ 40 as a function of the concentration of the test compound.
The sandwich ELISA to detect Aβ 40 was performed in 96 well microtiter plates, which were pre-treated with goat anti-rabbit IgG (Pierce). The capture and detecting antibody pair that were used to detect Aβ 40 from cell supernatants were affinity purified pAb40 (Biosource) and biotinylated 6E10 (Signet Labs Inc.), respectively. The optimal concentration for the pAb40 antibody was 3 μg/ml in Superblock/TBS (Pierce) that was supplemented with 0.05% Tween 20 (Sigma). Optimal concentration for the detection antibody 6E10-biotinylated was 0.5 μg/ml in Superblock/TBS (Pierce) that had been supplemented with 2% normal goat serum and 2% normal mouse serum.
Cellular supernatants were incubated with the capture antibody for 3 h at 4° C., followed by 3 wash steps in TBS-tween (0.05%). The detecting antibody incubation was for 2 h at 4° C., again followed by the wash steps as described previously. The final readout of the ELISA is Time-Resolved Fluorescence (counts per minute) using Delfia reagents Streptavidin-Europium and Enhancement solutions (Perkin Elmer) and the Victor 2 multilabel counter (Perkin Elmer).
Of the compounds tested, in-the cell-based assay, data for each of Examples 33-156 is provided in Table 1 and Examples 208-246 are provided in Table 4.

A further assay has as its target BACE1 (Homo sapiens, UniProt P56817). Nature of the assay: In vitro enzymatic BACE FRET (fluorescence resonance energy transfer) assay. It counts as biochemical. As for the experimental part:
In Vitro Enzymatic BACE FRET (Fluorescence Resonance Energy Transfer) Assay (Enzyme Assay Data in Table 1)
The assay buffer used in this screen is 0.05 M acetate, pH 4.2, 10% DMSO final, 100 uM genapol (which is a nonionic detergent, below its Critical Micelle Concentration). […] The assay is effectively started by the addition of FRET substrate (50 nM) and the combination is incubated for one hour. The FRET assay is terminated with by addition of Tris buffer, which raises the pH to neutrality, and the fluorescence is determined. The FRET substrate is a peptide with commercially available fluorophore and quencher, on opposite sides of the BACE cleavage site. Proteolytic cleavage of the FRET substrate releases quenching of fluorescence (excitation […] and emission […]).

Data on 16 compounds can be found in patent publication US8633315B2, “Substituted hydroxyethyl amine compounds as beta-secretase modulators and methods of use” (Amgen Inc., priority 2007, dated 2014).

SMILES strings stand for the structures. Some results are limits rather than exact numbers.

For orientation: IC50 means the concentration that gives 50% inhibition.

BACE1, sequence (P56817 46-501, species assumed): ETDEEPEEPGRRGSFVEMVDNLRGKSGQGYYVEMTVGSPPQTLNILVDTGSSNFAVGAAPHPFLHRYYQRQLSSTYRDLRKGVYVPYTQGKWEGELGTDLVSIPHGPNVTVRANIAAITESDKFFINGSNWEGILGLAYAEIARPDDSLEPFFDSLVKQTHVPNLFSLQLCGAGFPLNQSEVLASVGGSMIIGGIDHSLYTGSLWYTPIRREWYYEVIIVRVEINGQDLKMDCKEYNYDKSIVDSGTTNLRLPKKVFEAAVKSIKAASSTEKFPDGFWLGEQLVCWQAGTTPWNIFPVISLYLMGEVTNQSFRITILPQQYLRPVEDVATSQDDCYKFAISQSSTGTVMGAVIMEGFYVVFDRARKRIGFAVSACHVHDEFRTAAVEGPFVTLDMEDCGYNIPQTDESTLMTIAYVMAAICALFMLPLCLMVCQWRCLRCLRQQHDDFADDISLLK

`C=CCC(NC(=O)CF)C(O)CNC1CC2(CC(O)C2)Oc2ncc(CC(C)(C)C)cc21` [Example 111, N-((1S)-1-((1R)-2-(((1s,3S,4′S)-6′-(2,2-dimethylpropyl)-3-hydroxy-3′,4′-dihydrospiro[cyclobutane-1,2′-pyrano[2,3-b]pyridin]-4′-yl)amino)-1-hydroxyethyl)-3-buten-1-yl)-2-fluoroacetamide]: the IC50 amounted to 65 nM in assay [1] (Homo sapiens, HEK293) and 20 nM at BACE1.
For the compound `C=CC[C@H](NC(=O)COC)[C@H](O)CN[C@H]1CC2(CCC2)Oc2ncc(CC(C)(C)C#N)cc21` [Example 55, N-((1S)-1-((1R)-2-(((4′S)-6′-(2-cyano-2-methylpropyl)-3′,4′-dihydrospiro[cyclobutane-1,2′-pyrano[2,3-b]pyridin]-4′-yl)amino)-1-hydroxyethyl)-3-buten-1-yl)-2-(methyloxy)acetamide], the IC50 came out at 7580 nM in assay [1] (Homo sapiens, HEK293, 24 h) and 3400 nM on BACE1.
Regarding `C=CC[C@H](NC(=O)[C@H]1CC1(F)F)[C@H](O)CN[C@H]1CC2(CCC2)Oc2ncc(CC(C)(C)C)cc21` [Example 139, (1R)-N-((1S)-1-((1R)-2-(((4′S)-6′-(2,2-dimethylpropyl)-3′,4′-dihydrospiro[cyclobutane-1,2′-pyrano[2,3-b]pyridin]-4′-yl)amino)-1-hydroxyethyl)-3-buten-1-yl)-2,2-difluorocyclopropanecarboxamide], the IC50 worked out at 277 nM in assay [1] (Homo sapiens, HEK293, 24 h) and 198 nM at BACE1.
On the same counts, the results for `C=CCC(NC(=O)C1CCC(=O)O1)C(O)CNC1CC2(CCC2)Oc2cnc(C(F)(F)F)cc21` [Example 119, (S)-N-((2R,3S)-1-((S)-2,2-spirocyclobutyl-6-(trifluoromethyl)-3,4-dihydro-2H-pyrano[2,3-c]pyridin-4-ylamino)-2-hydroxyhex-5-en-3-yl)-5-oxo-tetrahydrofuran-2-carboxamide] are at least 10000 nM and 9300 nM.
Consider `C=C(C)C[C@H](NC(=O)CF)[C@H](O)CN[C@H]1CC2(CCC2)Oc2ncc(CC(C)(C)C)cc21` [Example 100, N-((1S)-1-((1R)-2-(((4′S)-6′-(2,2-dimethylpropyl)-3′,4′-dihydrospiro[cyclobutane-1,2′-pyrano[2,3-b]pyridin]-4′-yl)amino)-1-hydroxyethyl)-3-methyl-3-buten-1-yl)-2-fluoroacetamide], for which the IC50 in assay [1] (Homo sapiens, HEK293) was found to be 3330 nM; at BACE1, 3650 nM.
`C=CCC(NC(=O)C1CC1OCC)C(O)CNC1CC2(CCC2)Oc2ncc(CC(C)(C)C)cc21` [Example 154, (1R,2S)-N-((1S)-1-((1R)-2-(((4′S)-6′-(2,2-dimethylpropyl)-3′,4′-dihydrospiro[cyclobutane-1,2′-pyrano[2,3-b]pyridin]-4′-yl)amino)-1-hydroxyethyl)-3-buten-1-yl)-2-(ethyloxy)cyclopropanecarboxamide; (1S,2R)-N-((1S)-1-((1R)-2-(((4′S)-6′-(2,2-dimethylpropyl)-3′,4′-dihydrospiro[cyclobutane-1,2′-pyrano[2,3-b]pyridin]-4′-yl)amino)-1-hydroxyethyl)-3-buten-1-yl)-2-(ethyloxy)cyclopropanecarboxamide]: the figures for the IC50 (in assay [1]; at BACE1) were 242 nM and 137 nM, respectively.
`C=CC[C@H](NC(=O)COC)[C@H](O)CN[C@H]1CC2(CCC2)Oc2ncc(CC(C)(F)F)cc21` [Example 121, N-((1S)-1-((1R)-2-(((4′S)-6′-(2,2-difluoropropyl)-3′,4′-dihydrospiro[cyclobutane-1,2′-pyrano[2,3-b]pyridin]-4′-yl)amino)-1-hydroxyethyl)-3-buten-1-yl)-2-(methyloxy)acetamide]: the IC50 worked out at 226 nM in assay [1] (Homo sapiens, HEK293, 24 h) and 225 nM at BACE1.
In the same order, the values of `C=CC[C@H](NC(=O)c1cccc(F)c1F)[C@H](O)CN[C@H]1CC2(CCC2)Oc2ncc(CC(C)(C)C)cc21` [Example 69, N-((1S)-1-((1R)-2-(((4′S)-6′-(2,2-dimethylpropyl)-3′,4′-dihydrospiro[cyclobutane-1,2′-pyrano[2,3-b]pyridin]-4′-yl)amino)-1-hydroxyethyl)-3-buten-1-yl)-2,3-difluorobenzamide] are 121 nM and 155 nM.
In the same order, the values of `C=CC[C@H](NC(=O)c1cncnc1)[C@H](O)CN[C@H]1CC2(CCC2)Oc2ncc(CC(C)(C)C)cc21` [Example 68, N-((1S)-1-((1R)-2-(((4′S)-6′-(2,2-dimethylpropyl)-3′,4′-dihydrospiro[cyclobutane-1,2′-pyrano[2,3-b]pyridin]-4′-yl)amino)-1-hydroxyethyl)-3-buten-1-yl)-5-pyrimidinecarboxamide] are 709 nM and 271 nM.
In the same order, the values of `C=CC[C@H](NC(=O)C(C)(F)F)[C@H](O)CN[C@H]1CC2(CCC2)Oc2ncc(CC(C)(C)C)cc21` [Example 136, N-((1S)-1-((1R)-2-(((4′S)-6′-(2,2-dimethylpropyl)-3′,4′-dihydrospiro[cyclobutane-1,2′-pyrano[2,3-b]pyridin]-4′-yl)amino)-1-hydroxyethyl)-3-buten-1-yl)-2,2-difluoropropanamide] are 342 nM and 37 nM.
Consider `C=CC[C@H](NC(=O)c1ccc(F)c(F)c1F)[C@H](O)CN[C@H]1CC2(CCC2)Oc2ncc(CC(C)(C)C)cc21` [Example 73, N-((1S)-1-((1R)-2-(((4′S)-6′-(2,2-dimethylpropyl)-3′,4′-dihydrospiro[cyclobutane-1,2′-pyrano[2,3-b]pyridin]-4′-yl)amino)-1-hydroxyethyl)-3-buten-1-yl)-2,3,4-trifluorobenzamide], for which the IC50 in assay [1] (Homo sapiens, HEK293, 24 h) is 2650 nM; on BACE1 it was 483 nM.
On the same counts, the results for `C=CC[C@H](NC(=O)c1ccc(OC)nc1)[C@H](O)CN[C@H]1CC2(CCC2)Oc2ncc(CC(C)(C)C)cc21` [Example 63, N-((1S)-1-((1R)-2-(((4′S)-6′-(2,2-dimethylpropyl)-3′,4′-dihydrospiro[cyclobutane-1,2′-pyrano[2,3-b]pyridin]-4′-yl)amino)-1-hydroxyethyl)-3-buten-1-yl)-6-(methyloxy)-3-pyridinecarboxamide] are 1400 nM and 215 nM.
For the compound `C=CCC(NC(C)=O)C(O)CNC1CC2(CC(O)C2)Oc2ccc(Br)cc21` [Example 118, N-((1S)-1-((1R)-2-(((2s,3′S,4S)-6-bromo-3′-hydroxy-3,4-dihydrospiro[chromene-2,1′-cyclobutan]-4-yl)amino)-1-hydroxyethyl)-3-buten-1-yl)acetamide], the results for the concentration for half-maximal inhibition (IC50) (in assay [1]; on BACE1) were at least 10000 nM and 6060 nM, respectively.
Regarding `C=CC[C@H](NC(=O)C1CC(=O)N(C2CCC2)C1)[C@H](O)CN[C@H]1CC2(CCC2)Oc2ncc(CC(C)C)cc21` (stereo partly drawn) [Example 40, 1-cyclobutyl-N-((1S)-1-((1R)-1-hydroxy-2-(((4′S)-6′-(2-methylpropyl)-3′,4′-dihydrospiro[cyclobutane-1,2′-pyrano[2,3-b]pyridin]-4′-yl)amino)ethyl)-3-buten-1-yl)-5-oxo-3-pyrrolidinecarboxamide], the IC50 in assay [1] (Homo sapiens, HEK293, 24 h) was determined as 6 nM; on BACE1 it was 6 nM.
With `C=CC[C@H](NC(=O)c1cccnc1OC)[C@H](O)CN[C@H]1CC2(CCC2)Oc2ncc(CC(C)(C)C)cc21` [Example 65, N-((1S)-1-((1R)-2-(((4′S)-6′-(2,2-dimethylpropyl)-3′,4′-dihydrospiro[cyclobutane-1,2′-pyrano[2,3-b]pyridin]-4′-yl)amino)-1-hydroxyethyl)-3-buten-1-yl)-2-(methyloxy)-3-pyridinecarboxamide], the IC50 in assay [1] (Homo sapiens, HEK293, 24 h) is 258 nM; on BACE1, 475 nM.
In turn, `CC=CC[C@H](NC(=O)[C@H]1CCC(=O)O1)[C@H](O)CN[C@H]1C[C@]2(C[C@H](F)C2)Oc2ncc(CC(C)(C)C)cc21` [Example 108, (2R)-N-((1S)-1-((1R)-2-(((1s,3S,4′S)-6′-(2,2-dimethylpropyl)-3-fluoro-3′,4′-dihydrospiro[cyclobutane-1,2′-pyrano[2,3-b]pyridin]-4′-yl)amino)-1-hydroxyethyl)-3-penten-1-yl)-5-oxotetrahydro-2-furancarboxamide] gave an IC50 in assay [1] of 95 nM.
